Data published in patent US9481743B2, “Polyelectrolyte polymers, their manufacture and use” (priority 2013, dated 2016).
Where “and” joins values, the source holds several entries; their conditions need not be identical. Equal values may be shown once.

What was measured:
[1] = of the protonated form; cited from earlier work
[2] = Solubility/miscibility tests; type: physicochemical
Method: Approximately 5-10 mg of compound was added to a test tube followed by the addition of 1.5 mL of solvent followed by 5 seconds of gentle stirring. If dissolution was not observed immediately, the mixture was further stirred and sonicated for 30 seconds. Material was deemed soluble if the resulting solution was free of particulate and haze, determined by visual inspection. […] If solutions remained hazy, they were referred to as emulsion mixtures.

[3] = Thermal degradation by thermal gravimetric analysis (TGA); type: physicochemical; details: 10° C./min, nitrogen
Method: Nuclear Magnetic Resonance (NMR) spectroscopy was conducted on a Varian INOVA 400 MHz spectrometer (^1H, 400.09 MHz, ^31P{^1H} 161.82 MHz, ^19F, 376.15 MHz). All ^1H spectra were referenced relative to tetramethyl silane (CDCl3; ^1H δH=7.26 ppm and CO(CD3)2; ^1H δH=2.04). The chemical shifts for ^31P{H} NMR spectroscopy were referenced using an external standard (85% H3PO4; δP=0). The chemical shifts for ^19F{^1H} NMR spectroscopy were also referenced using an external standard (trifluorotoluene; δF=−63.9 ppm). Infrared spectra were recorded using a Bruker Tensor 27 spectrometer using attenuated total reflectance mode (ATR) using a ZnSe crystal. […] Water contact angles (WCA) were measured using a Kruss DSA100 Drop Shape Analyzer and analyzed using Drop Shape Analysis. Thermal degradation was determined using Thermal Gravimetric Analysis (TGA) on a Q600 SDT TA instrument. […] Glass transition temperatures were determined using Differential Scanning calorimetry (DSC) on a DSC Q20 TA instrument. […] Melting points of all HFPS were determined using a Gallenkamp Variable Heater in air. Mass spectrometry was recorded in both positive and negative ion modes using electrospray ionization (ESI) Micromass LCT spectrometer. […] The positive or negative secondary ions were extracted from the sample surface, mass separated and detected via a reflectron-type time-of-flight analyser. […]

[4] = Slow heating within a mass spectrometer, perfluoro-tert-butanol fragment m/z 197 monitored; type: physicochemical; details: heated slowly within a mass spectrometer
Source text: Compound [3b]Cl was heated slowly within a mass spectrometer and the fragments of perfluoro-tert-butanol was monitored.

Escherichia coli = assay: Antibacterial drop-test of UV-cured films; type: cell-based
Method: (§1) A desired amount of 2-hydrox-2-methy-1-phenyl-propanone (5 wt %), diacrylate crosslinker (EB 130, a cyclic aliphatic diacrylate) and the acrylate-appended phosphonium salt were weighed and combined in screw top vials. The mixture was then insonated at 45° C. for 20 min until the solutions were free of particulate and haze. After cooling to room temperature, the solutions were cast on polyester films and irradiated with UV light three times. Leached films were treated with H2O (Milli-Q) in a wrist action shaker for 4 hours, followed by washing with H2O (2×10 mL) and air drying. Both leached and unleached films were subjected to the antibacterial test (below).
(§2) The antibacterial activities of the charged surfaces against Gram-negative bacteria Escherichia coli […] were studied using the antibacterial drop-test. E. coli precultured in 15 mL of nutrient broth (Difco™ BD) at 37° C. for 24 h, was washed by centrifuging at 4000 rpm for 10 min. After removing the supernatant, the cells were washed with phosphate buffered saline (PBS) twice and re-suspended and diluted to approximately 10^6 colony forming units (CFU)/mL in PBS solution. The samples were placed in sterilized Petri dishes. 100 μL of PBS solution with bacteria was added dropwise onto sterilized surfaces until completely covered. The petri dishes were sealed and placed in an incubator at 37° C. with the humidity 46%. After 4 hr, the bacteria were washed from the surface of the sample by using 10 mL PBS in the sterilized Petri dish. From this solution, 100 μL was spread onto solid plate count agar (Difco™ BD). After incubation for 24 h at 37° C., the number of surviving bacterial colonies on the Petri dishes were counted. The results after multiplication with the dilution factor were expressed as CFU per mL. The above experiments were carried out in triplicate for each sample. The percentage of killed bacteria was calculated as [(CFU of initial bacterial suspension−CFUs following surface contact)/CFU of initial bacterial suspension]×100.

S. Aureus = assay: Antibacterial drop-test of UV-cured films; type: cell-based
Method: as §1, §2

[5] = Density of surface phosphonium cations by UV-vis (fluorescein dye); type: physicochemical
Method: Characterization by FTIR-ATR spectroscopy confirmed the conversion of acrylate functionality post polymerization. Percent cure was determined using a literature procedure. The intensity of the acrylate vibration at 810 cm^−1 was compared to the C═O vibration at 1750 cm^−1 both before and after irradiation. […] The density of surface phosphonium cations was determined by UV-vis spectroscopy as described in a literature procedure.
Characterization by FTIR-ATR spectroscopy confirmed the conversion of acrylate functionality post polymerization. […] The density of surface phosphonium cations was determined by UV-vis spectroscopy as described in a literature procedure^23. […] This assumes a 1:1 ratio of positive and negative charge on the surface.
Before deposition of [Au25L18]^−, the number of accessible charges on the PPF was quantified. A known protocol utilizing fluorescein dye was employed to determine the value for the above system and to relate this quantity back to the percentage of phosphonium monomers that were included in the original formulation.^23 This procedure is commonly used as a characterization technique for films containing surface-bound quaternary salts. […] At 30 wt %, a dramatic increase in the number of quaternary charges was observed (1.5×10^15 cations/cm^2). Increasing the salt content to 37.5 and 47.5 wt % yielded surfaces with 8.2×10^15 and 1.4×10^16 cations/cm^2, respectively. […] Use of low melting phosphonium salts permits formation of a formulation having low viscosity despite the high ion content, allowing for ease of handling and deposition. Use of high melting point organic salts in a similar fashion generates formulations with relatively high viscosities or significant solubility issues, which manifest themselves in poor films. Advantages of the phosphonium-based acrylate monomer in the fabrication of the charged surfaces can thus be seen.

OC(C(F)(F)F)(C(F)(F)F)C(F)(F)F [perfluoro-tert-butoxide]
pKa [1]: 5.2

C=Cc1ccc(C[P+](CCCOC(C(F)(F)F)(C(F)(F)F)C(F)(F)F)(CCCOC(C(F)(F)F)(C(F)(F)F)C(F)(F)F)CCCOC(C(F)(F)F)(C(F)(F)F)C(F)(F)F)cc1.[Cl-] [[3b]Cl]
Solubility (in words) ([2]; chloroform): soluble | Solubility (in words) ([2]; dichloromethane): soluble | Solubility (in words) ([2]; most solvents including diethyl ether): high solubility | Decomposition Point [3]: 198 °C and 197* ° C. | Time at which signal at m/z=197 was at a maximum [4]: 889 s | Time until fragment at m/z=197 was observed [4]: 532 s

C=CC(=O)OCCC[P+](CCCC)(CCCC)CCCC.[Br-] [[4]Br, (3-(acryloyloxy)propyl)tributylphosphonium bromide]
% E. coli killed (unleached) (Escherichia coli; 25% [4]Br in EB 130 film): No | % E. coli killed (unleached) (Escherichia coli; 30% [4]Br in EB 130 film): 30 ± 5% | % E. coli killed (unleached) (Escherichia coli; 37.5% [4]Br in EB 130 film): 46 ± 7% | % E. coli killed (unleached) (Escherichia coli; 47.5% [4]Br in EB 130 film): 82 ± 9% | % S. Aureus killed (unleached) (S. Aureus; 30% [4]Br in EB 130 film): 100 ± 2% | % S. Aureus killed (leached) (S. Aureus; 47.5% [4]Br in EB 130 film, leached): 100 ± 2% | % S. Aureus killed (unleached) (S. Aureus; 47.5% [4]Br in EB 130 film): 100 ± 2% | Charge/Unit area ([5]; 25% [4]Br film): 0 ×10^x Y^+/cm^2 | Charge/Unit area ([5]; 30% [4]Br film): 1.47 × 10^15 ×10^x Y^+/cm^2 | Charge/Unit area ([5]; 37.5% [4]Br film): 8.18 × 10^15 ×10^x Y^+/cm^2 | Charge/Unit area ([5]; 47.5% [4]Br film): 1.42 × 10^16 ×10^x Y^+/cm^2
